The source of these data is ChEMBL document CHEMBL1132082, “Nonsteroidal androgen receptor agonists based on 4-(trifluoromethyl)-2H-pyrano[3,2-g]quinolin-2-one” (Bioorg Med Chem Lett, 1999).

pEC50, pIC50: −log10 of the molar value.

The target in one experiment is Estrogen receptor (Homo sapiens, UniProt Q92731+P03372). Briefly: In vitro antagonistic activity against human estrogen receptor (hER); not active. Type of experiment: functional.
In experiment [1] the target is T1, Mineralocorticoid receptor (Homo sapiens, UniProt P08235).
T1 sequence (P08235 whole entry): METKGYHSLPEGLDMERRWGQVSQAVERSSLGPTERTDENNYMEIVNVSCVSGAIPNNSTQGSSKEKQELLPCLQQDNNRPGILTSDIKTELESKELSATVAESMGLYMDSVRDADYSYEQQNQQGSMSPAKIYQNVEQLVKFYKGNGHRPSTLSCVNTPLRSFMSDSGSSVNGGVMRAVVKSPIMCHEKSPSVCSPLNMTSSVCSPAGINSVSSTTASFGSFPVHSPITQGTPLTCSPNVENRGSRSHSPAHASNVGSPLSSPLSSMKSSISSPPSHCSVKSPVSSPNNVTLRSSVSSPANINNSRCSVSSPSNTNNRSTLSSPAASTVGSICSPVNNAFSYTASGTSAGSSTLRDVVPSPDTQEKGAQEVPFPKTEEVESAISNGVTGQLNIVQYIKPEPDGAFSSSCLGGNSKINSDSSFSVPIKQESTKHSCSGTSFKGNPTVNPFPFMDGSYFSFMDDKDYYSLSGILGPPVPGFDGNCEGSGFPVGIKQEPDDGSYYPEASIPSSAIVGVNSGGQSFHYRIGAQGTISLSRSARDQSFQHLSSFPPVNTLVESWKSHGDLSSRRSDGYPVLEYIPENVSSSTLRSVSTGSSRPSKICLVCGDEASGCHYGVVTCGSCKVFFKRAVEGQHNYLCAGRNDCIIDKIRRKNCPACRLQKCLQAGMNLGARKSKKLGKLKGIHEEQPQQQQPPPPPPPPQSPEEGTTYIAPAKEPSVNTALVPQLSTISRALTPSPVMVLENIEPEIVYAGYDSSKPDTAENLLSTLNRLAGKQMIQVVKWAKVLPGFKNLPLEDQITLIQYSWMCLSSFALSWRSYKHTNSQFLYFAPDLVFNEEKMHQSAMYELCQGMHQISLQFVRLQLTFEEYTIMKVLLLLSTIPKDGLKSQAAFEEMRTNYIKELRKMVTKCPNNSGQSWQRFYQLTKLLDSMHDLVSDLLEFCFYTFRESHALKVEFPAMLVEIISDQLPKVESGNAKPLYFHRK
Description: In vitro antagonistic activity against human mineralocorticoid receptor (hMR); not active. Type of experiment: functional.

For experiment [2], the target named is T2, Mineralocorticoid receptor (Homo sapiens) (UniProt P08235).
T2 sequence (whole entry): T1 sequence (P08235 whole entry)
Description: In vitro antagonistic activity against human mineralocorticoid receptor (hMR). Type of experiment: functional.

Experiment [3] concerns the target T3, Progesterone receptor (Homo sapiens) (UniProt P06401).
T3 sequence (whole entry): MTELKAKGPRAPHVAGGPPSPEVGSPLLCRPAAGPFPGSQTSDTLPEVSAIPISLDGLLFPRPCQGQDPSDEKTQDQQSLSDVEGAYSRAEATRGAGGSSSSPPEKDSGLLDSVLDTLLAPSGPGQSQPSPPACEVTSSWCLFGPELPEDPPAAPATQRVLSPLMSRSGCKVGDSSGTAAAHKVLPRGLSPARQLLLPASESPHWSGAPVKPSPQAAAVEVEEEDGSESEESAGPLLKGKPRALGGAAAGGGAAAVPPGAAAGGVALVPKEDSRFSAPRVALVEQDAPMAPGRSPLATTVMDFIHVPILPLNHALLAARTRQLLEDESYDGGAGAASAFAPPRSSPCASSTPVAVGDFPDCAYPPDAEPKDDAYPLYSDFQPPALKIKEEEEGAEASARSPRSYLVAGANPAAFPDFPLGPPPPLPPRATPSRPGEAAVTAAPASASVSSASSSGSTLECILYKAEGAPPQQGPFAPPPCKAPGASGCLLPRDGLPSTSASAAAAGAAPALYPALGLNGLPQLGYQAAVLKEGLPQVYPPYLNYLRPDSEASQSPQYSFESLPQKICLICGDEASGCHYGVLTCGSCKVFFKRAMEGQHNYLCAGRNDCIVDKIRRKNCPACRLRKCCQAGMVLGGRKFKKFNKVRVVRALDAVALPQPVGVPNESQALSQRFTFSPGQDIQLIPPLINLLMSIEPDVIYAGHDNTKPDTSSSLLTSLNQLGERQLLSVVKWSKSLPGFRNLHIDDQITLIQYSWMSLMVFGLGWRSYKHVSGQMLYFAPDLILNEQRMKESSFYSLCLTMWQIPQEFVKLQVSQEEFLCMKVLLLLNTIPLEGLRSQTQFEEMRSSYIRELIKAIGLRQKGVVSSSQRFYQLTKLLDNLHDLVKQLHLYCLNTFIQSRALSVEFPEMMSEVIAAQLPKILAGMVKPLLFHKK
Briefly: (§1) In vitro antagonistic activity against human progesterone receptor (hPR). Type of experiment: functional.

Another experiment has as its target T4, Progesterone receptor (Homo sapiens, UniProt P06401).
T4 sequence (P06401 whole entry): T3 sequence (whole entry)
Described as §1. Type of experiment: functional.

The target of experiment [4] is T5, Androgen receptor (Homo sapiens, UniProt P10275).
T5 sequence (P10275 whole entry): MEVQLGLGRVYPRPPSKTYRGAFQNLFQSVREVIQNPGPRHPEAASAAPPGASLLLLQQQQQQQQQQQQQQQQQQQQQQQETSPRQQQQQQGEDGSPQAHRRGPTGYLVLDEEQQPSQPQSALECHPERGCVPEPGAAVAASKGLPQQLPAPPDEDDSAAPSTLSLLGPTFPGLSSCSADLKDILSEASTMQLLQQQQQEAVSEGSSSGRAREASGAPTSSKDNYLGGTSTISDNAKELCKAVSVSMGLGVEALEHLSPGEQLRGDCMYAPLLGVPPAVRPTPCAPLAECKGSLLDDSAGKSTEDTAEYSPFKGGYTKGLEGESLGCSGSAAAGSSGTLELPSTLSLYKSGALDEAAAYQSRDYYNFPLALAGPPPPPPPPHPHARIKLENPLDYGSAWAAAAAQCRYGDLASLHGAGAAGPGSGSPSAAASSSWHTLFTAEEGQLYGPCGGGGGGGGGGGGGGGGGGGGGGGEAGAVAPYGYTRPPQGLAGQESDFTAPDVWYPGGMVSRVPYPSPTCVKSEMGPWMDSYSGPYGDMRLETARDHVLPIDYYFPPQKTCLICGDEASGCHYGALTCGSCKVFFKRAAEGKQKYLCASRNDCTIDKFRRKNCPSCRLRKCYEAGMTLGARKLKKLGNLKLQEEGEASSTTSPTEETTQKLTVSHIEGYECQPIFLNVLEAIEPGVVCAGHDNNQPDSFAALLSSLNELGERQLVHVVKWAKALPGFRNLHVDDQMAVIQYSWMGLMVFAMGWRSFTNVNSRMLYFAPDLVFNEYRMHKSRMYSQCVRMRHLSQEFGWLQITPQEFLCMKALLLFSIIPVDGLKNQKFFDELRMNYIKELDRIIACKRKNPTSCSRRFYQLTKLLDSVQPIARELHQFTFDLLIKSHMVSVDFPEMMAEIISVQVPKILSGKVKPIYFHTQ
Description: In vitro agonistic activity against human androgen receptor using cotransfection assay in CV-1 cells.

The target of experiment [5] is T5, Androgen receptor. This is another data set of the same source.

For the compound `CCCC1CCNc2cc3oc(=O)cc(C(F)(F)F)c3cc21` (stereo not given), at Estrogen receptor, the IC50 was more than 10000 nM. Besides, the pIC50 in experiment [1] is less than 5.00; on Progesterone receptor it was 6.97; against Androgen receptor [5] it was less than 8.00. The Efficacy in experiment [2] was less than 20%; in experiment [3] it was 89%. The compound also had a pEC50 at Androgen receptor [4] of 8.30.
As for `CCC1Nc2cc3oc(=O)cc(C(F)(F)F)c3cc2CC1C` (stereo not given), the IC50 against Estrogen receptor is more than 10000 nM. Further, the pIC50 is less than 5.00 in experiment [1], 6.36 at Progesterone receptor and less than 8.00 against Androgen receptor [5]. Also, the values for the Efficacy in experiment [2] and in experiment [3] were less than 20% and 88%, respectively. In addition, the pEC50 at Androgen receptor [4] was 9.00.
With `CCC1CCNc2cc3oc(=O)cc(C(F)(F)F)c3cc21` (stereo not given), the IC50 against Estrogen receptor is more than 10000 nM. Also, the pIC50 is less than 5.00 in experiment [1], 6.70 against Progesterone receptor and less than 8.00 on Androgen receptor [5]. In addition, the Efficacy is less than 20% in experiment [2] and 91% in experiment [3]. At Androgen receptor [4], this compound had a pEC50 of 8.70.
On Estrogen receptor, `CC1CCNc2cc3oc(=O)cc(C(F)(F)F)c3cc21` (stereo not given) returned an IC50 of more than 10000 nM. For the same compound, the pIC50 is less than 5.00 in experiment [1], 6.55 on Progesterone receptor and less than 8.00 against Androgen receptor [5]. For the same compound, the Efficacy in experiment [2] is less than 20%; in experiment [3], 83%. On Androgen receptor [4], the pEC50 was 8.70.
With `O=c1cc(C(F)(F)F)c2cc3c(cc2o1)NCCC3C(F)(F)F` (stereo not given), on Estrogen receptor, the concentration for half-maximal inhibition (IC50) was more than 10000 nM. The pIC50 was less than 5.00 in experiment [1], 6.57 against Progesterone receptor and less than 8.00 against Androgen receptor [5]. For the same compound, the Efficacy in experiment [2] is less than 20%; in experiment [3] it was 68%. The compound also had a pEC50 at Androgen receptor [4] of 8.70.

What is called IC50 is the concentration at which inhibition is half-maximal. For orientation: pIC50 means −log10 of the IC50, conventionally taken in molar units. The pEC50 is the EC50 on a negative log10 scale, so that one unit is a factor of ten. Read a low pEC50 as a large EC50.
